# Test results published in patent US20240409935A1, “Atg8ylation coordinates stress granule formation and mTOR inactivation in response to lysosomal damage” (priority 2023, published 2024).
# Residues, ends and D or L forms follow the SMILES beside them. *: point of attachment. βNA = c1ccc2cc(N*)ccc2c1
# What was measured:
# [1] = system: G3BP1 puncta (stress granules) in U2OS cells; test: HCM quantification of G3BP1 puncta (stress granule formation) in U2OS cells; assay type: cell-based, human; conditions: for SG formation response (G3BP1 puncta): agent alone for 30 min (2 mM LLOMe, 200 μM GPN, 400 μg/mL silica, 4 mM LOMe)
# [2] = system: G3BP1 puncta in THP-1 cells; test: Stress granule formation in THP-1 cells; assay type: cell-based, human
# Method: (§1) FIGS. 12SA-12SF. Stress granules are important for cell survival in response to lysosomal damage in disease states. […] White masks, algorithm-defined cell boundaries; red masks, computer-identified LTR puncta. […] White masks, algorithm-defined cell boundaries; green masks, computer-identified ALIX puncta. […] White masks, algorithm-defined cell boundaries; red masks, computer-identified G3BP1 puncta. […] Cells Were treated with 200 μg/mL silica for 4 h in the presence or absence of 100 nM ISRIB, and then stained with propidium iodide PI (dead cells) and Hoechst-33342 (total cells). White masks, algorithm-defined cell boundaries; red masks, computer-identified PI^+ nuclei. […]
# How does SG formation affect cell fate during lysosomal damage? […] The inventors quantified the number of SGs using the canonical SG marker polyA RNA (Ivanov et al., 2019) via high-content microscopy (HCM) (FIG. S1B) and verified the depletion of SG formation in ΔΔG3BP1/2 cells when exposed to the lysosome-specific damaging agent L-leucyl-L-leucine methyl ester (LLOMe) (Jia et al., 2022; Tan et al., 2022; Thiele et al., 1990) (FIG. 7SB). A propidium iodide (PI) uptake assay measuring plasma membrane integrity (Crowley et al., 2016; Liu et al., 2023) was adapted to quantify cell survival during lysosomal damage using HCM. […]
# ATF4 = ATF4 expression in THP-1 cells; assay type: cell-based, human
# THP-1 cells = test: Cell survival of THP-1 cells; assay type: cell-based
# [3] = system: human peripheral blood monocyte-derived macrophages (hMDM); test: PI uptake cell death assay (HCM) in hMDM; assay type: cell-based
# Method: Cells Were treated with 2 mM LLOMe for 30 min, and then stained with propidium iodide (PI) (dead cells) and Hoechst-33342 (total cells). White masks, algorithm-defined cell boundaries (primary objects); red masks, computer-identified PI^+ nuclei (target objects). […] Cells Were treated with 2 mM LLOMe for 30 min. […] Cells Were treated with 2 mM in the presence or absence of 10 μg/ml cycloheximide (CHX) for 30 min, and then stained with PI (dead cells) and Hoechst-33342 (total cells). […] Scale bar, 10 μm. […] Cells Were treated with 2 mM LLOMe with or without CHX for 30 min, and then stained using Live/Dead™ stain kit (ThermoFisher). […] Cells Were treated with 2 mM LLOMe for 30 min, and then stained with PI (dead cells), Hoechst-33342 (total cells) or eIF4G. (i) HCM images: white masks, algorithm-defined cell boundaries; green masks, computer-identified eIF4G puncta; red masks, computer-identified PI^+ nuclei (target objects); (ii and iii) corresponding HCM quantification. […] Cells Were treated with 2 mM LLOMe for 30 min. […] CTR, control; NT, untreated cells. Data, means±SEM (n=3); HCM: n≥3 (each experiment: 500 valid primary objects/cells per Well, ≥5 Well s/sample). †p≥0.05 (not significant), *p<0.05, **p<0.01, ANOVA. See also FIG. 7S.
# as §1
# U2OS cells = test: LDH release assay in U2OS cells; assay type: cell-based, human; conditions: LLOMe plus cycloheximide
# Description: How does SG formation affect cell fate during lysosomal damage? The inventors utilized SG deficient U2OS cells (human osteosarcoma epithelial cell line) genetically lacking both G3BP1 and G3BP2 (ΔΔG3BP1/2) (Nancy Kedersha et al., 2016), which are essential factors for SG formation (Guillén-Boixet et al., 2020; Nancy Kedersha et al., 2016; P. Yang et al., 2020) (FIG. 7SA). The inventors quantified the number of SGs using the canonical SG marker polyA RNA (Ivanov et al., 2019) via high-content microscopy (HCM) (FIG. S1B) and verified the depletion of SG formation in ΔΔG3BP1/2 cells when exposed to the lysosome-specific damaging agent L-leucyl-L-leucine methyl ester (LLOMe) (Jia et al., 2022; Tan et al., 2022; Thiele et al., 1990) (FIG. 7SB). A propidium iodide (PI) uptake assay measuring plasma membrane integrity (Crowley et al., 2016; Liu et al., 2023) was adapted to quantify cell survival during lysosomal damage using HCM. […] This was additionally confirmed by using a lactate dehydrogenase (LDH) release assay measuring non-specific leak from cells (Chan et al., 2013; Kumar et al., 2018) (FIG. 1B). […] Elevated cell death, as quantified by PI uptake assay (FIG. 1F (i, iii)) and the LDH release assay (FIG. 1G), was detected in G3BP1/2^DKD in response to LLOMe treatment. […]
# [4] = system: human peripheral blood monocyte-derived macrophages (hMDM); conditions: 1 μg/ml cycloheximide
# [5] = system: human peripheral blood monocyte-derived macrophages (hMDM); conditions: hemozoin (10.0 mg/mL) 4 h, 1 μg/ml cycloheximide
# [6] = system: eIF2α (S51) phosphorylation; test: Immunoblot analysis of eIF2α (S51) phosphorylation in U2OS cells; assay type: cell-based, human
# TFEB = TFEB nuclear translocation (HCM) and TFEB (S142) phosphorylation in Huh7 cells; assay type: cell-based, human; conditions: 530 nM AZD6244 for 2 h, 1 mM LLOMe for 30 min
# Method: FIGS. 2SA-2SG show the cellular transcriptional response during lysosomal damage. FIG. 2SA RNAseq analysis of the change on gene expression in HEK293T cells in response to 1 mM LLOMe treatment for 30 min. […] The dotted line indicates the significance cut-off (P<0.05). […] Ctrl, control (untreated cells). […] Blue: nuclei, Hoechst 33342. Red: anti-TFEB antibody, Alexa Fluor 568. White masks, computer-algorithm-defined cell boundaries. Pink masks, computer-identified nuclear TFEB based on the average intensity of Alexa Fluor 568 fluorescence. […] Red masks, computer-identified G3BP1 puncta. […] Red masks, computer-identified G3BP1 puncta. Ctrl, control (untreated cells). Data, means±SEM; HCM: n≥3 (each experiment: 500 valid primary objects/cells per Well, ≥5 Well s/sample). **p<0.01, ANOVA.
# [7] = system: Galectin-3 puncta in BMM cells; assay type: cell-based, murine
# mTOR = test: mTOR/mTORC1 activity by phosphorylation of its substrates (4EBP1 S65, ULK1 S757, S6K1 T389) in U2OS cells; assay type: cell-based, human
# [8] = system: NUFIP2, G3BP1 and TIA1 on lysosomes; assay type: cell-based, human
# [9] = system: ALIX puncta in U2OS cells; test: HCM quantification of ALIX puncta in U2OS cells; assay type: cell-based, human; conditions: 15 μM BAPTA-AM for 1 h, then 2 mM LLOMe for 30 min
# Method: Cells Were treated with 2 mM LLOMe for 30 min. White masks, algorithm-defined cell boundaries; red masks, computer-identified G3BP1 puncta. […] Cells Were treated with 2 mM LLOMe for 30 min. White masks, algorithm-defined cell boundaries; green masks, computer-identified ALIX puncta. NT, untreated cells. Data, means±SEM (n=3); HCM: n≥3 (each experiment: 500 valid primary objects/cells per Well, ≥5 Well s/sample). †p≥0.05 (not significant), **p<0.01, ANOVA. See also FIG. 11.
# PKR = test: LysoIP immunoblotting of PKR and eIF2α phosphorylation on damaged lysosomes from HEK293T cells; assay type: cell-based, human; conditions: 1 mM LLOMe with 210 nM imidazolo-oxindole C16 for 1 h
compound,measurement,setting,value
"NCC(=O)N[C@@H](Cc1ccccc1)C(=O)Nc1ccc2ccccc2c1 [GPN, glycyl-L-phenylalanine-2-naphthyl amide] (H-Gly-Phe-βNA)",SG formation response (G3BP1 puncta),[1],strong SG formation response
"O=C(COc1ccc(Cl)cc1)N[C@H]1CC[C@@H](NC(=O)COc2ccc(Cl)cc2)CC1 [ISRIB, N,N′-((1s,4s)-cyclohexane-1,4-diyl)bis(2-(4-chlorophenoxy)acetamide)]","SG formation upon lysosomal damage, with ISRIB",[2],prevented SG formation
same,"ATF4 expression levels upon lysosomal damage, with ISRIB",ATF4,reduction in ATF4 expression levels
same,"cell survival upon lysosomal damage, with ISRIB",THP-1 cells,decrease in cell survival
same,"cell death by PI uptake assay during tau oligomer treatment, with ISRIB","[3]; 10 μg/mL tau oligomer for 4 h, 100 nM ISRIB",comparable effect on cell death
same,"cell death by PI uptake assay during silica treatment, with ISRIB","[3]; 200 μg/mL silica for 4 h, 100 nM ISRIB",comparable effect on cell death
C[C@@H]1C[C@@H]([C@H](O)CC2CC(=O)NC(=O)C2)C(=O)[C@@H](C)C1 [cycloheximide],"SG formation (G3BP1 puncta) following LLOMe treatment, with cycloheximide",[1],inhibited SG formation
same,"cell survival by LDH release, with cycloheximide during lysosomal damage",U2OS cells,increased LDH release
same,"cell death by PI uptake assay during LLOMe treatment, with cycloheximide",[3]; 2 mM LLOMe with 10 μg/ml cycloheximide for 30 min,significant increase in cell death
same,"cell death (AMNIS, Live/Dead) during tau oligomer treatment, with cycloheximide",[4]; 10 μg/mL tau oligomer for 4 h,augmented cell death
same,"cell death (AMNIS, Live/Dead) during silica treatment, with cycloheximide",[4]; 200 μg/mL silica for 4 h,augmented cell death
same,"cell death by LDH release assay in response to hemozoin, with cycloheximide",[5],increased cell death
COC(=O)[C@@H](N)CC(C)C [LOMe],SG formation response (G3BP1 puncta),[1],did not induce SG formation
"Nc1ncc2[nH]cnc2n1 [2-AP, 2-aminopurine]","SG formation in response to LLOMe treatment, with 2-AP",[1]; 2-AP for 1 h followed by 2 mM LLOMe for 30 min,"inhibited, in a dose-response fashion, SG formation"
same,"eIF2α phosphorylation in cells treated with LLOMe, with PKR inhibitor","[6]; U2OS cells, 2-AP for 1 h followed by 2 mM LLOMe for 30 min",inhibited eIF2α phosphorylation
Cn1cnc2c(F)c(Nc3ccc(Br)cc3Cl)c(C(=O)NOCCO)cc21 [AZD6244],nuclear translocation of TFEB and dephosphorylation at Ser142: lysosomal damage compared with AZD6244,TFEB,equal in magnitude
"O=[As][O-].[Na+] [arsenite, NaAsO2]",lysosomal damage monitored by Galectin-3 response,[7],did not induce lysosomal damage
same,eIF2α phosphorylation under arsenic stress,[6],led to eIF2α phosphorylation
same,mTORC1 activity under arsenic stress,mTOR,activating mTORC1 activity
same,"enrichment of NUFIP2, G3BP1 and TIA1 on purified lysosomes",[8],not on lysosomes purified from cells treated with arsenite
CC(=O)OCOC(=O)CN(CC(=O)OCOC(C)=O)c1ccccc1OCCOc1ccccc1N(CC(=O)OCOC(C)=O)CC(=O)OCOC(C)=O [BAPTA-AM],"SG formation during lysosomal damage, with BAPTA-AM","[1]; 15 μM BAPTA-AM for 1 h, then 2 mM LLOMe for 30 min",significant reduction in SG formation
same,"eIF2α phosphorylation during lysosomal damage, with BAPTA-AM","[6]; U2OS cells, 15 μM BAPTA-AM for 1 h, then 2 mM LLOMe for 30 min",significant reduction
same,"ALIX puncta formation upon lysosomal damage, with BAPTA-AM",[9],decrease in ALIX puncta formation
O=C1Nc2ccc3ncsc3c2/C1=C/c1cnc[nH]1 [imidazolo-oxindole C16],"SG formation during lysosomal damage, with C16",[1]; 210 nM imidazolo-oxindole C16 for 2 h followed by 2 mM LLOMe for 30 min,reduced SG formation
same,"phosphorylation of both PKR and eIF2α on damaged lysosomes, with C16",PKR,effectively blocked
